Source: ChEMBL document CHEMBL4814072, “Chemoenzymatic synthesis of 2,6-disubstituted tetrahydropyrans with high σ1 receptor affinity, antitumor and analgesic activity” (Eur J Med Chem, 2021)
Active and inactive are the calls of the source. No cut-off for these calls is given here.

What was measured:
[1] = target: Sigma intracellular receptor 2 (Rattus norvegicus) (UniProt Q5U3Y7); experiment: Displacement of [3H]-di-o-tolylguanidine from sigma2 receptor in rat liver membrane at 1 uM by solid scintillation counting method; type: cell membranes
[2] = target: Sigma non-opioid intracellular receptor 1 (Cavia porcellus) (UniProt Q60492); experiment: Displacement of [3H]-(+)-pentazocine from sigma1 receptor in guinea pig brain membrane at 1 uM measured after 120 mins by solid scintillation counting method; type: cell membranes
[3] = target: Glutamate [NMDA] receptor (Homo sapiens) (UniProt Q05586+Q12879+Q13224+O15399+O60391+Q14957+Q8TCU5); experiment: Displacement of [3H]-(+)-MK801 from PCP binding site of NMDA receptor (unknown origin); type: protein-complex assay; conditions: dose 1.0 µM
[4] = target: Sigma non-opioid intracellular receptor 1 (Cavia porcellus, UniProt Q60492)
[5] = target: T1, Sigma intracellular receptor 2 (Rattus norvegicus, UniProt Q5U3Y7); experiment: Displacement of [3H]-di-o-tolylguanidine from sigma2 receptor in rat liver membrane by solid scintillation counting method; type: cell membranes
T1 sequence (Q5U3Y7 whole entry): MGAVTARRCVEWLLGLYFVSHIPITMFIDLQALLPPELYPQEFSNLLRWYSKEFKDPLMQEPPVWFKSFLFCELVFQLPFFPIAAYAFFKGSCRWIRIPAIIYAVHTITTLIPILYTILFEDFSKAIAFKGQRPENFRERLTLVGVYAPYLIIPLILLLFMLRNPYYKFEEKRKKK

Mus musculus = experiment: Antiallodynic activity in CD-1 mouse assessed as analgesia at 40 mg/kg, sc administered 30 mins prior to capsaicin stimulation and measured after 15 mins by von Frey test (reference value: 97.3 %); type: functional; conditions: time 45 min, 0.75 h
Cytochrome P450 2C19 = Cytochrome P450 2C19 (Homo sapiens, UniProt P33261); experiment: Inhibition of CYP2C19 (unknown origin) at 1 uM; type: ADME
DU-145 = experiment: Antiproliferative activity against androgen-negative human DU145 cells assessed as inhibition of cell growth at 10 uM measured after 72 hrs by SRB assay; type: functional, cell-based
[6] = target: Adrenergic receptor alpha-1 (Homo sapiens) (UniProt P35348+P25100+P35368); experiment: Binding affinity to human alpha1 adrenergic receptor; type: protein assay
[7] = target: Sodium-dependent noradrenaline transporter (Homo sapiens) (UniProt P23975); experiment: Inhibition of noradrenaline transporter (unknown origin)
[8] = target: T2, 5-hydroxytryptamine receptor 1A (Homo sapiens) (UniProt P08908); experiment: Binding affinity to human 5HT1A receptor
T2 sequence (whole entry): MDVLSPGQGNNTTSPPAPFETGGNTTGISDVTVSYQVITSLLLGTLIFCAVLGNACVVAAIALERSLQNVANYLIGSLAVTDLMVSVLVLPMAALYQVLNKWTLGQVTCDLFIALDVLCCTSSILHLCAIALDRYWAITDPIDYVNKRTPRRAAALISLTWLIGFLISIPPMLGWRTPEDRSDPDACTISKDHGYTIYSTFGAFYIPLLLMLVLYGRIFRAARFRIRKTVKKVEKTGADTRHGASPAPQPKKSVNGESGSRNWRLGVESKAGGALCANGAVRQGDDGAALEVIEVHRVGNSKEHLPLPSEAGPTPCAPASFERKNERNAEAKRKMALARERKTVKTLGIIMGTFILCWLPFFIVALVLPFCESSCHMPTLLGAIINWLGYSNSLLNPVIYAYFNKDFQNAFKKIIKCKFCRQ

[9] = target: Mu-type opioid receptor (Homo sapiens) (UniProt P35372); experiment: Binding affinity to human mu opioid receptor
[10] = target: 5-hydroxytryptamine receptor 2B (Homo sapiens) (UniProt P41595); experiment: Binding affinity to human 5HT2B receptor
[11] = target: Sodium-dependent serotonin transporter (Homo sapiens) (UniProt P31645); experiment: Inhibition of serotonin transporter (unknown origin)
[12] = target: Delta-type opioid receptor (Homo sapiens) (UniProt P41143); experiment: Binding affinity to human delta opioid receptor
[13] = Selectivity ratio of Ki for sigma2 receptor in rat liver membrane to Ki for sigma1 receptor in guinea pig brain membrane; type: cell membranes
Cytochrome P450 3A4 = Cytochrome P450 3A4 (Homo sapiens, UniProt P08684); experiment: Inhibition of CYP3A4 (unknown origin) at 1 uM; type: ADME
Cytochrome P450 1A2 = target: T3, Cytochrome P450 1A2 (Homo sapiens, UniProt P05177); experiment: Inhibition of CYP1A2 (unknown origin) at 1 uM; type: ADME
T3 sequence (P05177 whole entry): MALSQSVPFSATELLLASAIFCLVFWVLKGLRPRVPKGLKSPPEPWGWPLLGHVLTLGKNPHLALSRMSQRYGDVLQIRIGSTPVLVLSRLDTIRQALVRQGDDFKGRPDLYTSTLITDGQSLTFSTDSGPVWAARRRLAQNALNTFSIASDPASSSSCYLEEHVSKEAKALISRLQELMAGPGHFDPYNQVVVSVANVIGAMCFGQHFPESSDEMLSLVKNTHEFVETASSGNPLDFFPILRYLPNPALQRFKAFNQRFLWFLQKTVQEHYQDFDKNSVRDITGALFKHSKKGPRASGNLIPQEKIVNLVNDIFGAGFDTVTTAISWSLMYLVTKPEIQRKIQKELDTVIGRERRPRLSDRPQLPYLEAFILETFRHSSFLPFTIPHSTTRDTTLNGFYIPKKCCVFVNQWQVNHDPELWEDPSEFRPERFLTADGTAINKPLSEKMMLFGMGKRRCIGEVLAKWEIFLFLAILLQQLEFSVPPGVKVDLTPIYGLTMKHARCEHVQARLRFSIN

[14] = target: Sodium-dependent dopamine transporter (Homo sapiens) (UniProt Q01959); experiment: Inhibition of dopamine transporter (unknown origin)
Cytochrome P450 2C9 = Cytochrome P450 2C9 (Homo sapiens, UniProt P11712); experiment: Inhibition of CYP2C9 (unknown origin) at 1 uM; type: ADME
[15] = target: Kappa-type opioid receptor (Homo sapiens) (UniProt P41145); experiment: Binding affinity to human kappa opioid receptor
[16] = target: T4, Alpha-2A adrenergic receptor (Homo sapiens) (UniProt P08913); experiment: Binding affinity to human alpha2A adrenergic receptor
T4 sequence (whole entry): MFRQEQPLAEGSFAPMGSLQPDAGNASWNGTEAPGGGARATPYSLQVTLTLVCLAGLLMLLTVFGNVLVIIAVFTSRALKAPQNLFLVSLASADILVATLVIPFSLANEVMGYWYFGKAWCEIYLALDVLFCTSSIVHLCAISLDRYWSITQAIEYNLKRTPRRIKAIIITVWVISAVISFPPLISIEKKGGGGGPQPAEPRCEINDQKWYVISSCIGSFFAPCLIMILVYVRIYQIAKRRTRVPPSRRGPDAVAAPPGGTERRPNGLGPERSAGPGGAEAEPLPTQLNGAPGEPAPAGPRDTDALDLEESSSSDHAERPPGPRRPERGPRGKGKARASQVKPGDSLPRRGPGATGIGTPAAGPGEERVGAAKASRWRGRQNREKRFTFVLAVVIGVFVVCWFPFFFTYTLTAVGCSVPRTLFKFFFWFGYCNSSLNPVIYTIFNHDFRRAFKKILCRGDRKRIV

Chain of Mu-type opioid receptor (Homo sapiens) (P35372 whole entry): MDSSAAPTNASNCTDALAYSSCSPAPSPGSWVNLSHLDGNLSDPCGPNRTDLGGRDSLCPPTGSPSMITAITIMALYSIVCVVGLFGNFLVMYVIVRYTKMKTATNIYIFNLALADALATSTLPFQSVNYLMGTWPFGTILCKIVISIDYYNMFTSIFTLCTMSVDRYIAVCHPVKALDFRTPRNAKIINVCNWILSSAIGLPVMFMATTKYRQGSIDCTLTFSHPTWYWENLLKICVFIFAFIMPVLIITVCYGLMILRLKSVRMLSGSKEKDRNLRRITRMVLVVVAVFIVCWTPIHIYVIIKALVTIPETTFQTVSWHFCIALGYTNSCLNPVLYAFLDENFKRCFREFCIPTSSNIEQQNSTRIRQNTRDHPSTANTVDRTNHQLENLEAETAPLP
Chain of Sodium-dependent dopamine transporter (Homo sapiens) (Q01959 whole entry): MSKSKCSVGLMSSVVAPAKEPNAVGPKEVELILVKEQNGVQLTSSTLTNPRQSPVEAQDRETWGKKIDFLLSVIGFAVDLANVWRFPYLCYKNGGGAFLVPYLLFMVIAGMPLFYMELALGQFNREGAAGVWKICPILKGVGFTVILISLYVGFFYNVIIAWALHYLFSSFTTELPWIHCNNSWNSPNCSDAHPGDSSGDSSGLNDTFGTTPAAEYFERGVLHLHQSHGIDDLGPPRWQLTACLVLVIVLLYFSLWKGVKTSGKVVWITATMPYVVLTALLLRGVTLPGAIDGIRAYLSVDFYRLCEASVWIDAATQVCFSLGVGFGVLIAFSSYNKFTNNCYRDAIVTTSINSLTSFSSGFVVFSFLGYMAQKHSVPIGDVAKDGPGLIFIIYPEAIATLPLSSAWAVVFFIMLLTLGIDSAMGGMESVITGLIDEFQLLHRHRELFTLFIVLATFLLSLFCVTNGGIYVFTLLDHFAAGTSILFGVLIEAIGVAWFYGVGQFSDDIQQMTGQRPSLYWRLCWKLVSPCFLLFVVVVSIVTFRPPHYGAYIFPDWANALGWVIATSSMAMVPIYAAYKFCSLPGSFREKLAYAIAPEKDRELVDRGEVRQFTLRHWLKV
Chain of Cytochrome P450 3A4 (P08684 whole entry): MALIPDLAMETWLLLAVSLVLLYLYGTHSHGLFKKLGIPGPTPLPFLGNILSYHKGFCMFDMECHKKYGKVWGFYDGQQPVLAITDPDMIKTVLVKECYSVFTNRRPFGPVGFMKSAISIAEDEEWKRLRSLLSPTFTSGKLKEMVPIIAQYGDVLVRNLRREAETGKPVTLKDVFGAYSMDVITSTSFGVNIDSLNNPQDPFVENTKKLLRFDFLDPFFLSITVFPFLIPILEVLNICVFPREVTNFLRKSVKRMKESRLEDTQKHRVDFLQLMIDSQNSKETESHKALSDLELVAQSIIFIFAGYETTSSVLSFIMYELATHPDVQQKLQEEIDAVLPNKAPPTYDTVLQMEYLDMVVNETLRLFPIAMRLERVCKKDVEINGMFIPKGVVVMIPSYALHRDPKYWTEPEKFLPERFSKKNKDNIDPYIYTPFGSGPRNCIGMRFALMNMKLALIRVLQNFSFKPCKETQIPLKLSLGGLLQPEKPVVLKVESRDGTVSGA
Chain of Cytochrome P450 2C9 (P11712 whole entry): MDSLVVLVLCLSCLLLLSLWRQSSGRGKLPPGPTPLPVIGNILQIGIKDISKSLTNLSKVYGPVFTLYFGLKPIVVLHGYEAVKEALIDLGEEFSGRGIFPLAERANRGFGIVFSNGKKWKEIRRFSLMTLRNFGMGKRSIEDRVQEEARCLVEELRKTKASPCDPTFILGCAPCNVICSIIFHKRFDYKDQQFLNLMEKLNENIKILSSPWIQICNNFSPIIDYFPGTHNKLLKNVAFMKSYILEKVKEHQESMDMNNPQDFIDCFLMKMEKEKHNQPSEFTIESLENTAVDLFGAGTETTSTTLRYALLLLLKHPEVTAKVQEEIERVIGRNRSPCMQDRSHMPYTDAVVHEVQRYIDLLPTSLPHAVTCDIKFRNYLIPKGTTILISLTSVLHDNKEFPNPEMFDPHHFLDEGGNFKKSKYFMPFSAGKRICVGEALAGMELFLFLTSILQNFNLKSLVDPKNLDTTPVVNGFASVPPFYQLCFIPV
Chain of Kappa-type opioid receptor (Homo sapiens) (P41145 whole entry): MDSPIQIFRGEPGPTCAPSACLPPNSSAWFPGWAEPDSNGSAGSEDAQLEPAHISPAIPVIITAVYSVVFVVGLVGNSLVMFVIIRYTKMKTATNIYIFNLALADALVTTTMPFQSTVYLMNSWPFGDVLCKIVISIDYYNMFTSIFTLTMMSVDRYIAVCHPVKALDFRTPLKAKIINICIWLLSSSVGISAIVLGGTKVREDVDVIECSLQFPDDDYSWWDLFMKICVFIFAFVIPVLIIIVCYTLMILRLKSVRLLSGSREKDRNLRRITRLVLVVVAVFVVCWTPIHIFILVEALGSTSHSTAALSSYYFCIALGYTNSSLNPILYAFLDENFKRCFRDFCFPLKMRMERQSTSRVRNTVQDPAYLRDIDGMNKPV
Chain of Sodium-dependent serotonin transporter (Homo sapiens) (P31645 whole entry, looked up): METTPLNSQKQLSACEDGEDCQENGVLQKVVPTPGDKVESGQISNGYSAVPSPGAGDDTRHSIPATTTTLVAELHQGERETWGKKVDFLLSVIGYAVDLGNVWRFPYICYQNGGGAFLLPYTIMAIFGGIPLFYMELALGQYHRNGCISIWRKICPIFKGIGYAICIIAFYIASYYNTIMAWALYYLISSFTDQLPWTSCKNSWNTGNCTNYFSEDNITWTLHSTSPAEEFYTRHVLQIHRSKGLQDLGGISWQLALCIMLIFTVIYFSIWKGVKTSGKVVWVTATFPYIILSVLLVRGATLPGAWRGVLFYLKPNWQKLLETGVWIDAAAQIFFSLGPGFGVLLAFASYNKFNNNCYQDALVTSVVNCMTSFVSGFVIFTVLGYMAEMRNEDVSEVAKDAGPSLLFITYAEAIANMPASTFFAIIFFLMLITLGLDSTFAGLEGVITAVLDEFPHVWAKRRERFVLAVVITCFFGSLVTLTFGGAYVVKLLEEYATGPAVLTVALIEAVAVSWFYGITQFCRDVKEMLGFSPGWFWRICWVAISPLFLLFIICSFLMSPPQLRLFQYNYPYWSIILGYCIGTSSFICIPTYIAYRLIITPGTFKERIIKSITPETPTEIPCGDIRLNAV
Chain of 5-hydroxytryptamine receptor 2B (Homo sapiens) (P41595 whole entry): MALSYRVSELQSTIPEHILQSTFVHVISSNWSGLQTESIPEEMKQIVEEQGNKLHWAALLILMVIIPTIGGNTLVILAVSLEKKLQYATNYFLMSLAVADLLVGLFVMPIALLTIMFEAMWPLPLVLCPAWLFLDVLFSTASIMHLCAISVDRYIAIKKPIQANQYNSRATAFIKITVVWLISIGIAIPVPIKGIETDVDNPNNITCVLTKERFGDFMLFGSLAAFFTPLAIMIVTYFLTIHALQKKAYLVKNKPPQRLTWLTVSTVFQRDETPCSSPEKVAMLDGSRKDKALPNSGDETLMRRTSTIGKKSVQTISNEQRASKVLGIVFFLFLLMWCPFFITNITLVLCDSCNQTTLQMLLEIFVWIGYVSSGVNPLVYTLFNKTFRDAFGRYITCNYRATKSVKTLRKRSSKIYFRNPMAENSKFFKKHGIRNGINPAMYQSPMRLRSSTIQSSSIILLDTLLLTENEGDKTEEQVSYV
Chain of Delta-type opioid receptor (Homo sapiens) (P41143 whole entry): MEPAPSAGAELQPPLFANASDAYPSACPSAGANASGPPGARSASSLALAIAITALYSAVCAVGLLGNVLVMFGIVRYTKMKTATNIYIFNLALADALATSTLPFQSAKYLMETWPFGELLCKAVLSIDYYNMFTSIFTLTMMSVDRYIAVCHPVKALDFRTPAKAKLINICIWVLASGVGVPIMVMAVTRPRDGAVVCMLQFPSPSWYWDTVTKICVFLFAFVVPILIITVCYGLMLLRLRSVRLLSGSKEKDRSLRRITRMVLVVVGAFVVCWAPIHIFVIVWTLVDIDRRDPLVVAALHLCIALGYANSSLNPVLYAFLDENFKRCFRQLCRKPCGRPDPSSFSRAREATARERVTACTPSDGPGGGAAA
Chain of Sodium-dependent noradrenaline transporter (Homo sapiens) (P23975 whole entry): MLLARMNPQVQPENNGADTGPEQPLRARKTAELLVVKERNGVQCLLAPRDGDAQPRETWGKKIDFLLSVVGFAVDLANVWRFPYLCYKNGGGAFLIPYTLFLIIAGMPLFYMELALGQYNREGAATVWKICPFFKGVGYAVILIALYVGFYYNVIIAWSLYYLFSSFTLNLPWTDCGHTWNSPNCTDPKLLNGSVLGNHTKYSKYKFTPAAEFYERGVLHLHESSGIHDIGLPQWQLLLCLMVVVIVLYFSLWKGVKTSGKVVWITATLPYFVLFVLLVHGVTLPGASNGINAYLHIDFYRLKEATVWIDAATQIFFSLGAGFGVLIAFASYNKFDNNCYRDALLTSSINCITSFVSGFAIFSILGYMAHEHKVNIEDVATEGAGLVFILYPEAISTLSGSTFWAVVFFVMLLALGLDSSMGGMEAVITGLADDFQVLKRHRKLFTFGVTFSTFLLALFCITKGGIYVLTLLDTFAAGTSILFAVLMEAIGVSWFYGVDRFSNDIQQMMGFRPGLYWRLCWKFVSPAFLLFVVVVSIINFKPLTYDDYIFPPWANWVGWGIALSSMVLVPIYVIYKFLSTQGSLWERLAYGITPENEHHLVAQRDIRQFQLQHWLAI
Chain of Sigma non-opioid intracellular receptor 1 (Q60492 whole entry): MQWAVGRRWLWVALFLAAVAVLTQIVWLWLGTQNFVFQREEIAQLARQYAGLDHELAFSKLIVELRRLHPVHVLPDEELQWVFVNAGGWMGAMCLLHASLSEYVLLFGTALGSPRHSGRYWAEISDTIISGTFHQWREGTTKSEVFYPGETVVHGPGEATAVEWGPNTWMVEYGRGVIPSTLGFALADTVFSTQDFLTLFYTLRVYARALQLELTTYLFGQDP
Chain of Sigma non-opioid intracellular receptor 1 (Cavia porcellus) (Q60492 whole entry): as above

## NCC[C@H]1CCC[C@@H](c2ccccc2)O1
[1]
  inhibition: 10%
[2]
  inhibition: 4%
[3]
  inhibition: 43%

## c1ccc([C@@H]2CCC[C@H](CCN3CCN(c4ccccc4)CC3)O2)cc1
[4]
  Ki: 0.057 µM
[5]
  Ki: 0.161 µM

## c1ccc(CCCCNCC[C@@H]2CCC[C@H](c3ccccc3)O2)cc1
[4]
  Ki: 0.015 µM
[5]
  Ki: 0.234 µM
[3]
  inhibition: 43%

## CN(C)CC[C@@H]1CCC[C@H](c2ccccc2)O1
[4]
  Ki: 0.465 µM
[5]
  Ki: 2.3 µM
[3]
  inhibition: 37%

## Cc1cc(OCCN2CCOCC2)nn1-c1ccc2ccccc2c1
Mus musculus
  Activity: 97%

## CN(C)CC[C@H]1CCC[C@@H](c2ccccc2)O1
[4]
  Ki: 0.217 µM
[5]
  Ki: 4 µM
[3]
  inhibition: 31%

## c1ccc(CNCC[C@@H]2CCC[C@H](c3ccccc3)O2)cc1
Cytochrome P450 2C19
  inhibition (INH): Not Active
DU-145
  Activity: Active
[6]
  Activity: inactive
[7]
  inhibition: inactive
Mus musculus
  Activity: 21%
[4]
  Ki: 0.0016 µM
[5]
  Ki: 0.378 µM
[8]
  Activity: inactive
[9]
  Activity: inactive
[10]
  Activity: inactive
[11]
  inhibition: inactive
[12]
  Activity: inactive
[13]
  Ratio Ki: 236
Cytochrome P450 3A4
  inhibition (INH): Not Active
Cytochrome P450 1A2
  inhibition (INH): Not Active
[14]
  inhibition: inactive
Cytochrome P450 2C9
  inhibition (INH): Not Active
[15]
  Activity: inactive
[16]
  Activity: inactive

## c1ccc([C@@H]2CCC[C@H](CCNCC3CCCCC3)O2)cc1
Cytochrome P450 2C19
  inhibition (INH): Not Active
DU-145
  Activity: Active
[6]
  Activity: inactive
[7]
  inhibition: inactive
Mus musculus
  Activity: 53%
[4]
  Ki: 0.0024 µM
[5]
  Ki: 0.036 µM
[8]
  Activity: inactive
[9]
  Activity: inactive
[10]
  Activity: inactive
[11]
  inhibition: inactive
[3]
  inhibition: 7%
[12]
  Activity: inactive
Cytochrome P450 3A4
  inhibition (INH): Not Active
Cytochrome P450 1A2
  inhibition (INH): Not Active
[14]
  inhibition: inactive
Cytochrome P450 2C9
  inhibition (INH): Not Active
[15]
  Activity: inactive
[16]
  Activity: inactive

## c1ccc(CNCC[C@H]2CCC[C@@H](c3ccccc3)O2)cc1
Cytochrome P450 2C19
  inhibition (INH): Not Active
DU-145
  Activity: Active
[6]
  Activity: inactive
[7]
  inhibition: inactive
Mus musculus
  Activity: 55%
[4]
  Ki: 0.0054 µM
[5]
  Ki: 0.426 µM
[8]
  Activity: inactive
[9]
  Activity: inactive
[10]
  Activity: inactive
[11]
  inhibition: inactive
[12]
  Activity: inactive
Cytochrome P450 3A4
  inhibition (INH): Not Active
Cytochrome P450 1A2
  inhibition (INH): Not Active
[14]
  inhibition: inactive
Cytochrome P450 2C9
  inhibition (INH): Not Active
[15]
  Activity: inactive
[16]
  Activity: inactive

## c1ccc([C@H]2CCC[C@@H](CCN3CCCC3)O2)cc1
[4]
  Ki: 0.06 µM
[5]
  Ki: 0.115 µM

## c1ccc([C@H]2CCC[C@@H](CCN3CCN(c4ccccc4)CC3)O2)cc1
[4]
  Ki: 0.021 µM
[5]
  Ki: 0.131 µM
[3]
  inhibition: 7%

## c1ccc([C@H]2CCC[C@@H](CCNCC3CCCCC3)O2)cc1
Cytochrome P450 2C19
  inhibition (INH): Not Active
DU-145
  Activity: Active
[6]
  Activity: inactive
[7]
  inhibition: inactive
Mus musculus
  Activity: 67%
[4]
  Ki: 0.00095 µM
[5]
  Ki: 0.057 µM
[8]
  Activity: inactive
[9]
  Activity: inactive
[10]
  Activity: inactive
[11]
  inhibition: inactive
[3]
  inhibition: 33%
[12]
  Activity: inactive
Cytochrome P450 3A4
  inhibition (INH): Not Active
Cytochrome P450 1A2
  inhibition (INH): Not Active
[14]
  inhibition: inactive
Cytochrome P450 2C9
  inhibition (INH): Not Active
[15]
  Activity: inactive
[16]
  Activity: inactive

## NCC[C@@H]1CCC[C@H](c2ccccc2)O1
[1]
  inhibition: 5%
[2]
  inhibition: 9%
[3]
  inhibition: 14%

## c1ccc([C@@H]2CCC[C@H](CCN3CCCC3)O2)cc1
[4]
  Ki: 0.031 µM
[5]
  Ki: 0.17 µM

## c1ccc(CCCCNCC[C@H]2CCC[C@@H](c3ccccc3)O2)cc1
[4]
  Ki: 0.029 µM
[5]
  Ki: 0.377 µM
[3]
  inhibition: 42%
